Reference: patent US12522614B2, “Topical phosphoinositide 3-kinase inhibitors” (VENTHERA, INC., priority 2019, dated 2026)

Experiments:
[1] = Viscosity of topical formulation as prepared; format: physicochemical; settings: gel formulation of Example 8 (Table 2)
Description: The liquid excipients, i.e. DMSO, oleic acid, Transcutol® P, and dipropylene glycol were mixed in a 20-mL vial, by vortex agitation. The active ingredient, a compound of formula (I), for example Compound 1.002 was then added, and the vial content was sonicated for 10 minutes to dissolve the compound. […] Hydroxylpropyl cellulose (HPC) was added, and the vial was agitated by vortex for another ten minutes to obtain the gel formulation. The viscosity of the clear gel was measured to be in a range of about 7,000 to 10,000 centipoise (cp).
A solution formulation was prepared, similar to the gel formulations as described in Example 8, without a thickening agent. The viscosity of the solution was 13.4 cp and it can be used as a topical spray or lotion.

[2] = In vitro skin permeation study, mouse skin vs. human skin; format: in vitro ADME; settings: Example 8 gel
Description: The gel formulation of Example 8 was used to determine the skin permeation through human and mouse skin. It is important to understand the permeation difference between the two types of skin, because mouse skin is used extensively in toxicology studies as well as in early in vivo studies. The skin permeation study was performed in accordance with the method as described in Example 9.

[3] = Stability study of Compound 1.002 as API (HPLC assay); format: physicochemical
Source text: The stability of three lots of Compound 1.002 as Active Pharmaceutical Ingredient (API) was studied for a period of 12 months.

[4] = target: T1, PI3Ka (p110a/p85a) (Homo sapiens, UniProt P42336); experiment: Lipid kinase inhibitory activity, ADP-Glo; format: biochemical; settings: α
T1 construct: purchased Reaction Biology Corporation (RBC)
Description: (§1) Lipid kinases: Lipid kinases from Reaction Biology Corporation (RBC) in ADP-Glo format were used.
(§2) Assay Description: The kinase reactions utilized ATP and produced ADP as a byproduct. The ADP production was quantified by ADP-Glo luminescence detection. This assay was a 3-step reaction. First, the kinase reaction with lipid substrate was carried out in the presence of ATP, and the reaction was quenched and depleted remaining ATP with ADP-Glo™ reagent, and then finally ADP was converted to ATP which was measured using a luciferase/luciferin reaction.
(§3) Assay Procedure: The assay was performed according to the steps as follows: • 1. Preparing substrate in freshly prepared reaction buffer; • 2. Delivering kinase into the substrate solution and gently mixing; • 3. Delivering compounds in […] into the kinase reaction mixture by Acoustic technology (Echo550; nanoliter range), incubating for 20 minutes at room temperature; • 4. Delivering ATP into the reaction mixture to initiate the reaction; • 5. Incubating for 30 minutes at 30° C.; • 6. Quenching the reaction with ADP-Glo reagent and incubating for 40 minutes; • 7. Adding Detection Mixture and incubating for 30 minutes; and • 8. Measuring luminescence.
(§4) Data Analysis: The luminescence was converted into μM ADP production based on ADP standard curves. The nonlinear regression to obtain the standard curve and IC50 values were performed using Graphpad Prism software.

[5] = target: T2, PI3K (p110a(E545K)/p85a) (Homo sapiens, UniProt P42336, E545K); experiment: Lipid kinase inhibitory activity, ADP-Glo; format: biochemical; settings: α E545K
T2 construct: purchased Reaction Biology Corporation (RBC)
Description: as §1, §2, §3, §4

[6] = target: T3, PI3K (p110a(H1047R)/p85a) (Homo sapiens, UniProt P42336, H1047R); experiment: Lipid kinase inhibitory activity, ADP-Glo; format: biochemical; settings: α H1047R
T3 construct: purchased Reaction Biology Corporation (RBC)
Description: as §1, §2, §3, §4

[7] = target: T4, PI3Kg (p110g) (Homo sapiens, UniProt P48736); experiment: Lipid kinase inhibitory activity, ADP-Glo; format: biochemical; settings: γ
T4 construct: purchased Reaction Biology Corporation (RBC)
Description: as §1, §2, §3, §4

[8] = target: T5, PI3Kb (p110b/p85a) (Homo sapiens, UniProt P42338); experiment: Lipid kinase inhibitory activity, ADP-Glo; format: biochemical; settings: β
T5 construct: purchased Reaction Biology Corporation (RBC)
Description: as §1, §2, §3, §4

[9] = target: T6, PI3K (p110a(E542K)/p85a) (Homo sapiens, UniProt P42336, E542K); experiment: Lipid kinase inhibitory activity, ADP-Glo; format: biochemical; settings: α E542K
T6 construct: purchased Reaction Biology Corporation (RBC)
Description: as §1, §2, §3, §4

[10] = target: T7, MTOR/FRAP1 (Homo sapiens, UniProt P42345); experiment: Lipid kinase inhibitory activity, ADP-Glo; format: biochemical
T7 construct: purchased Reaction Biology Corporation (RBC)
Description: as §1, §2, §3, §4

[11] = target: T8, PI3Kd (p110d/p85a) (Homo sapiens, UniProt O00329); experiment: Lipid kinase inhibitory activity, ADP-Glo; format: biochemical; settings: δ
T8 construct: purchased Reaction Biology Corporation (RBC)
Description: as §1, §2, §3, §4

T5 sequence (P42338 whole entry): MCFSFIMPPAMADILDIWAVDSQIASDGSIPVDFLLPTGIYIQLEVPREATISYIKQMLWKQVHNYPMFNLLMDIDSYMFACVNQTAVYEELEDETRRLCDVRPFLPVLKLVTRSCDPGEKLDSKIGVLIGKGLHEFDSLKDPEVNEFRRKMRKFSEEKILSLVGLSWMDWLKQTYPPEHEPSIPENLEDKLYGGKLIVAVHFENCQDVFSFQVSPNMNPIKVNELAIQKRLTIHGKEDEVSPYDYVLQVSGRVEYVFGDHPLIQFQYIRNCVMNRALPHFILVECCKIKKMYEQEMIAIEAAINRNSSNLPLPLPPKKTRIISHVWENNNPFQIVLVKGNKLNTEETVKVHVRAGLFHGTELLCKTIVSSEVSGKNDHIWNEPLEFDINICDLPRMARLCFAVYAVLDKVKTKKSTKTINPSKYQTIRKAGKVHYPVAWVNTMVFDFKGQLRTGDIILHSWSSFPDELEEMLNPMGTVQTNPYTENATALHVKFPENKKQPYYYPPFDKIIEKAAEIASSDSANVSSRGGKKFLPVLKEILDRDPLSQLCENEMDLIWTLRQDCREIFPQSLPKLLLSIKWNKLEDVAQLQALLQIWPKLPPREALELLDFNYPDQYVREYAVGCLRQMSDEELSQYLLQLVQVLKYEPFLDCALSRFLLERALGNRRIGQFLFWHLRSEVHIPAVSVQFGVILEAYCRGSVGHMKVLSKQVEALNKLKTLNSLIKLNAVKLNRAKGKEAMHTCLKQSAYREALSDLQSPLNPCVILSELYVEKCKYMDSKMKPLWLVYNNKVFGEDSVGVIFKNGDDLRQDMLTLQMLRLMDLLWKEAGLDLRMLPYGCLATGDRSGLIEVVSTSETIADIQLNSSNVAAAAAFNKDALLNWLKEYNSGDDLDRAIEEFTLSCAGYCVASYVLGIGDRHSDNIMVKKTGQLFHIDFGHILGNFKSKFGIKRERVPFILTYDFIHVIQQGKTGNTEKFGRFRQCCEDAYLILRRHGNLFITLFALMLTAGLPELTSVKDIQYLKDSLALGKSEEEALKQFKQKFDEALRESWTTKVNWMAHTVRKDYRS
T5 sequence (P27986 whole entry partner): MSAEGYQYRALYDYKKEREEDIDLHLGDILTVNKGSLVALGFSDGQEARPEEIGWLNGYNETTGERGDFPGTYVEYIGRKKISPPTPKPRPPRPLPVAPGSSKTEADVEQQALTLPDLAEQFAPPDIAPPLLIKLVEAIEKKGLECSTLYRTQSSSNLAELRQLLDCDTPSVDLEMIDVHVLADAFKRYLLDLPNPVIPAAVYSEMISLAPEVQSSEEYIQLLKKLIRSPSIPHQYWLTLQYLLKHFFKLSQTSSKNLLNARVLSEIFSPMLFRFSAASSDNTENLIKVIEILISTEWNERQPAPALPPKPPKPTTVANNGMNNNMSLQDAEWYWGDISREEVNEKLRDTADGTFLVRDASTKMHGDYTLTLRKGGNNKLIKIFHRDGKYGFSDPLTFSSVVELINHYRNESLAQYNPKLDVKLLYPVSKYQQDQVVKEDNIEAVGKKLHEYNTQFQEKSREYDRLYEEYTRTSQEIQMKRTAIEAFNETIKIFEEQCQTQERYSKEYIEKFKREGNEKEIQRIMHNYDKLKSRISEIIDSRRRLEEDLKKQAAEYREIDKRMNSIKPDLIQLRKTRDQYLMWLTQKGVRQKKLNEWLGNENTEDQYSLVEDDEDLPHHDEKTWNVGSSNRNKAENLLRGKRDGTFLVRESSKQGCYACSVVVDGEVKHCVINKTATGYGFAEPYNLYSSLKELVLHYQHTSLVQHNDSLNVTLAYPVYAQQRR
T6 sequence (P42336 whole entry E542K): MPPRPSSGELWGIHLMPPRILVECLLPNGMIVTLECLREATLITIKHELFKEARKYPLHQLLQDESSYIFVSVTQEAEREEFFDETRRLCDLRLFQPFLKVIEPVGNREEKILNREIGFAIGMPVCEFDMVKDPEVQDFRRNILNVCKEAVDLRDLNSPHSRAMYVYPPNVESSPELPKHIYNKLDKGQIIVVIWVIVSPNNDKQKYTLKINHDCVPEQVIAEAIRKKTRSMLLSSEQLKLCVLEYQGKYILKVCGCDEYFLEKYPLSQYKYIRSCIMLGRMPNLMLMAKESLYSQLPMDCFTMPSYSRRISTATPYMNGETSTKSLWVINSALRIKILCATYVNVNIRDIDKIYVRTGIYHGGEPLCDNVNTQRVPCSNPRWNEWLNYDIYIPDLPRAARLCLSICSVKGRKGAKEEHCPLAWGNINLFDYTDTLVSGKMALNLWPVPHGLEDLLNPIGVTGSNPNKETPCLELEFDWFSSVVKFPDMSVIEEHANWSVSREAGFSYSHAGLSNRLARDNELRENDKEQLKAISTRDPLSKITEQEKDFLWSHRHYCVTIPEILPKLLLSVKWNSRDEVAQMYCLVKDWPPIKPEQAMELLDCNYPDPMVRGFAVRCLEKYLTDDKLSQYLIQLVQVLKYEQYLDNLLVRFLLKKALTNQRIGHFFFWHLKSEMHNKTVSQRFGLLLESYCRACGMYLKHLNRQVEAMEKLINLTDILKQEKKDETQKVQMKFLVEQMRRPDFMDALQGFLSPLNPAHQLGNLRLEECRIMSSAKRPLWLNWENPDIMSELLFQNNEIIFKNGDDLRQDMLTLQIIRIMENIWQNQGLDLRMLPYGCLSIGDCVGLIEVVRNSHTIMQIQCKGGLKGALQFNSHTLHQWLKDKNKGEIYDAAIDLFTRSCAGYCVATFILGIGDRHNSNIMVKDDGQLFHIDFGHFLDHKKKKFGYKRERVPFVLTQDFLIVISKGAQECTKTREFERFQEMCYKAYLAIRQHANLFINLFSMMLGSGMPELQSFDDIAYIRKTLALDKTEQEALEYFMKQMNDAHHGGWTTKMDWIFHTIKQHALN
T6 sequence (P27986 whole entry partner): as the sequence (P27986 whole entry partner) above
T1 sequence (P42336 whole entry): as the sequence (P42336 whole entry E542K) above, with K542E counted along it
T1 sequence (P27986 whole entry partner): as the sequence (P27986 whole entry partner) above
T4 sequence (P48736 whole entry): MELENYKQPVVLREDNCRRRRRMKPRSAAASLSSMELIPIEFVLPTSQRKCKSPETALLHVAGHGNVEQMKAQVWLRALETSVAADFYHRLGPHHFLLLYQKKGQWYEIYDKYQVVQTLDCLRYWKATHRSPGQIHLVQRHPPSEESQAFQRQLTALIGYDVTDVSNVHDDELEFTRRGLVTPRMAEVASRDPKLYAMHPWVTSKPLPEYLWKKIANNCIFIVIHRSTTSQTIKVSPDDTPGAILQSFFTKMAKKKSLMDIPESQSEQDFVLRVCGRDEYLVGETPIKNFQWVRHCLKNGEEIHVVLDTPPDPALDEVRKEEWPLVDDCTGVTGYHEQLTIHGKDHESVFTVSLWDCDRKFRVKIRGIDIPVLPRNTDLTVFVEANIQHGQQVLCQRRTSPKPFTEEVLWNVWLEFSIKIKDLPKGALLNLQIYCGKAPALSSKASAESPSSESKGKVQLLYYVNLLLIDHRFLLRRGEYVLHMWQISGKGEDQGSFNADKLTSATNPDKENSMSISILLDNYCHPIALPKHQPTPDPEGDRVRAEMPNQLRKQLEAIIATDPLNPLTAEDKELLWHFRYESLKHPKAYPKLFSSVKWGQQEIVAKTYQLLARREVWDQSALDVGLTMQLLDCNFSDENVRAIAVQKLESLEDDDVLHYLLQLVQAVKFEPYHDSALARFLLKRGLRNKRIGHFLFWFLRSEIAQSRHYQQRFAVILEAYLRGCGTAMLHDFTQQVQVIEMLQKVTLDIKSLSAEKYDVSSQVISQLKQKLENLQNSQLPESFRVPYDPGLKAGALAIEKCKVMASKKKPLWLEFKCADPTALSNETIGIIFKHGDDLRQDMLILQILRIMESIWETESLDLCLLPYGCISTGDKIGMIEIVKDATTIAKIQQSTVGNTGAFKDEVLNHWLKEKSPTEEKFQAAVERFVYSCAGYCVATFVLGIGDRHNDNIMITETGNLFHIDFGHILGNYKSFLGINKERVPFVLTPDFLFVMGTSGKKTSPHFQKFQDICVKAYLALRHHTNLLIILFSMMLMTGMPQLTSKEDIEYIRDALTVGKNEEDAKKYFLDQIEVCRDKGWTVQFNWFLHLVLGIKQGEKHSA
T2 sequence (P42336 whole entry E545K): as the sequence (P42336 whole entry E542K) above, with K542E, E545K counted along it
T2 sequence (P27986 whole entry partner): as the sequence (P27986 whole entry partner) above
T3 sequence (P42336 whole entry H1047R): as the sequence (P42336 whole entry E542K) above, with K542E, H1047R counted along it
T3 sequence (P27986 whole entry partner): as the sequence (P27986 whole entry partner) above

In the case of `CC(=O)Oc1cccc(-c2nc(N3CCOCC3)c3sccc3n2)c1` [Compound 1.002, 3-(4-Morpholinothieno[3,2-d]pyrimidin-2-yl)phenyl Acetate], the “Viscosity of the clear gel” value [1] is reported as 7,000 to 10,000 centipoise (cp), the “Permeation through mouse skin compared with human skin” value ([2]; 48 hours, FIG. 5) is reported as “approximately three times higher” and the “Metabolism of Compound 1.002 to MTPP in human and mouse skin” value ([2]; both skin types) is reported as “proceeded equally well”. For the same compound, the “Compound 1.002 Purity by a HPLC Assay Method” value (“Compound 1.002 Purity” below) ([3]; Lot-1, 25° C./60% RH, 0 months) was 99.5%, the “Compound 1.002 Purity” value ([3]; Lot-1, 25° C./60% RH, 3 months) was 99.4% and the “Compound 1.002 Purity” value ([3]; Lot-1, 25° C./60% RH, 6 months) was 99.6%. For the same compound, the “Compound 1.002 Purity” value ([3]; Lot-1, 25° C./60% RH, 9 months) was 99.8%, the “Compound 1.002 Purity” value ([3]; Lot-1, 25° C./60% RH, 12 months) was 99.9% and the “Compound 1.002 Purity” value ([3]; Lot-1, 40° C./75% RH, 0 months) was 99.5%. The “Compound 1.002 Purity” value ([3]; Lot-1, 40° C./75% RH, 3 months) was 99.2%, the “Compound 1.002 Purity” value ([3]; Lot-1, 40° C./75% RH, 6 months) was 99.5% and the “Compound 1.002 Purity” value ([3]; Lot-2, 40° C./75% RH, 0 months) was 99.4%. The “Compound 1.002 Purity” value ([3]; Lot-2, 40° C./75% RH, 1 month) was 100.0%, the “Compound 1.002 Purity” value ([3]; Lot-2, 40° C./75% RH, 2 months) was 99.3% and the “Compound 1.002 Purity” value ([3]; Lot-2, 40° C./75% RH, 3 months) was 97.9%. For the same compound, the “Compound 1.002 Purity” value ([3]; Lot-2, 40° C./75% RH, 6 months) was 100.0%, the “Compound 1.002 Purity” value ([3]; Lot-3, 40° C./75% RH, 0 months) was 100.0% and the “Compound 1.002 Purity” value ([3]; Lot-3, 40° C./75% RH, 1 month) was 100.0%. For the same compound, the “Compound 1.002 Purity” value ([3]; Lot-3, 40° C./75% RH, 2 months) was 100.0%, the “Compound 1.002 Purity” value ([3]; Lot-3, 40° C./75% RH, 3 months) was 98.9% and the “Compound 1.002 Purity” value ([3]; Lot-3, 40° C./75% RH, 6 months) was 100.0%. The IC50 [4] was 35 nM, the IC50 [5] was 49 nM and the IC50 [6] was 59 nM. For the same compound, the IC50 [7] was 544 nM, the IC50 [8] was 257 nM and the IC50 [9] was 42 nM. The IC50 [10] was 1410 nM and the IC50 [11] was 83 nM.
